According to patent publication US20170114030A1, “COMPOSITION WITH HIGH CONTENT OF CYCLIC DIPEPTIDE” (SUNTORY HOLDINGS LIMITED, priority 2014, published 2017):

Columns and labels:
[1] = test system: NCI-H716 cells; experiment: In vitro GLP-1 secretion-accelerating action (active GLP-1 ELISA); format: cell-based; conditions: for Significant difference (p < 0.05) vs control group, amount of active GLP-1 secreted: 1 hour, Student's t-test; for Amount of active GLP-1 secreted (relative value to control group as 100), Average value: after 1 hour, group with no cyclic dipeptide = 100
Method: (§1) In the Test Examples below, data were represented as average value±standard error. In Test Examples 1, 2, and 3, a Student's t-test was used for a statistical test, and in other Test Examples, one-way ANOVA was carried out for dispersion analysis followed by a multiple comparison test by using a Dunnet's test. […] All of these analyses were carried out by using an SPSS for Windows release 17.0 (manufactured by SPSS Inc.).
Among the cyclic dipeptides, 92 highly water-soluble cyclic dipeptides were used in the following experiment. In each well of a Poly-L-Lysine 96-well plate, NCI-H716 cells suspended in 100 μL of a DMEM (with 10% FBS, 2 mM glutamine, and 1% antibiotics added in advance) were seeded at 0.5×10^5 cells/well, and cultured in a CO2 incubator (manufactured by ESPEC CORP.) for 48 hours. After washing with PBS(+), 100 μL of a PBS(+) solution with each cyclic dipeptide at a final concentration of 10 mM and 10 μM of Sitagliptin phosphate added therein was added to the cells. After 1 hour, the resultant solution was recovered, and the amount of active GLP-1 in the solution was measured by using the ELISA kit. In the analysis, the amount of active GLP-1 for a group with no cyclic dipeptide added was defined as 100, and relative values thereto were used.
In each Table, cyclic dipeptides for which an in vitro active GLP-1 secretion-accelerating activity was found and was not found are listed.

[2] = test system: plasma active GLP-1; experiment: In vivo plasma active GLP-1 level-increasing action after oral administration; design: species or system mice; conditions: 10 mg/kg orally; for Plasma active GLP-1 level (relative value to control group as 100), Average value: male C57/BL6J mice, blood after 30 minutes, 0.5% CMC-Na group = 100; for Significant difference (p < 0.05) vs control group, plasma active GLP-1 level: mice, 30 minutes, Student's t-test
Method: as §1
Among the cyclic dipeptides, cyclic dipeptides for which an in vitro GLP-1 secretion-accelerating action was found and highly lipid-soluble cyclic dipeptides were used in the following experiment. Seven-week-old male C57/BL6J mice were purchased from CLEA Japan, Inc. for use, and they were subjected to an experiment after 1 week of a habituation period. Each animal was grown in an animal room with an air conditioning system (temperature: 23.5±1.0° C., humidity: 55±10 RH %, air ventilation: 12 to 15 times/hour, illumination: from 7:00 to 19:00/day).
After the habituation period, the mice were subjected to 5.5 hours of food deprivation and 2 hours of water deprivation. Thereafter, a cyclic dipeptide dissolved or suspended in a 0.5% CMC-Na aqueous solution in 10 mg/kg was orally administered to each mouse forcibly. After 30 minutes, the blood was collected from the abdominal vena cava under anesthesia, and 1 μL of heparin sodium and 1 μL of 10 mM Sitagliptin phosphate were added to each collected blood, which was then subjected to centrifugation at 8000 rpm for 10 minutes to recover the plasma, and the plasma active GLP-1 level was measured by using the ELISA kit. In the analysis, the active GLP-1 level for a group administered with 0.5% CMC-Na aqueous solution was defined as 100, and relative values thereto were used.
In each Table, cyclic dipeptides for which an in vivo plasma active GLP-1 level-increasing action was found and was not found are listed.

[3] = Experiment 2, cyclic dipeptide 10 mM with 10 μM Sitagliptin phosphate
[4] = Experiment 4, cyclic dipeptide 10 mM with 10 μM Sitagliptin phosphate

Compound	Significant difference (p < 0.05) vs control group, amount of active GLP-1 secreted ([1]; Experiment 1, 10 mM)	Amount of active GLP-1 secreted (relative value to control group as 100), Average value ([1]; Experiment 1, cyclic dipeptide 10 mM with 10 μM Sitagliptin phosphate)	Plasma active GLP-1 level (relative value to control group as 100), Average value ([2]; Experiment 1)	Significant difference (p < 0.05) vs control group, plasma active GLP-1 level ([2]; Experiment 1)	Significant difference (p < 0.05) vs control group, amount of active GLP-1 secreted ([1]; Experiment 2, 10 mM)	Amount of active GLP-1 secreted (relative value to control group as 100), Average value [1, 3]	Significant difference (p < 0.05) vs control group, amount of active GLP-1 secreted ([1]; Experiment 4, 10 mM)	Amount of active GLP-1 secreted (relative value to control group as 100), Average value [1, 4]	Plasma active GLP-1 level (relative value to control group as 100), Average value ([2]; Experiment 2)	Significant difference (p < 0.05) vs control group, plasma active GLP-1 level ([2]; Experiment 2)
C[C@@H]1NC(=O)[C@H](CO)NC1=O [compound 25]	Yes	257	158	Yes						
O=C1N[C@@H](Cc2c[nH]c3ccccc23)C(=O)N[C@H]1Cc1c[nH]cn1 [compound 60]			129	No	Yes	260				
NCCCC[C@@H]1NC(=O)[C@H](Cc2ccccc2)NC1=O [compound 63]			206	Yes	Yes	220				
CCC(C)C1NC(=O)C(CCC(N)=O)NC1=O (stereo not drawn) [compound 182]							Yes	445	188	Yes
C[C@@H]1NC(=O)C2CCCN2C1=O (stereo partly drawn) [compound 187]							Yes	1186	217	Yes
NC(=O)CCC1NC(=O)C(Cc2c[nH]cn2)NC1=O (stereo not drawn) [compound 191]							Yes	743	247	Yes
O=C(O)CC1NC(=O)C(CO)NC1=O (stereo not drawn) [compound 193]							Yes	509	266	Yes
CC(C)C1NC(=O)C(CCCNC(=N)N)NC1=O (stereo not drawn) [compound 194]							Yes	498	237	Yes
CSCCC1NC(=O)C(CCCNC(=N)N)NC1=O (stereo not drawn) [compound 199]							Yes	652	217	Yes
